Results from patent US8067337B2, “Agricultural chemical composition” (priority 2004, dated 2011).

Assays:
Format in all cases: in vivo
[1] = tested on: Rice (Kinmaze); test: Rice seedlings at second leaf stage grown in liquid culture medium with various herbicidal compounds and p-(t-butyl)benzoic acid; conditions: herbicidal compound at ppm of Table 3, with or without p-(t-butyl)benzoic acid 3 ppm; after 14 days
Method: The test media were prepared by adding, in advance, to a 25% aqueous solution of salts for Murashige & Skoog culture medium (a product by Wako Pure Chemical Industries, Ltd.), various herbicidal compounds indicated in Table 3 and p-(t-butyl)benzoic acid to make up concentrations indicated in Table 3 and a concentration of 3 ppm, respectively. Fifty ml each of the resulting test culture media were dispensed into a 50 ml Erlenmeyer flask to prepare various liquid culture media. Similarly, a liquid culture medium with a herbicidal compound and a benzoic acid compound not added was prepared. Rice (Kinmaze) grown to the second leaf stage in culture soil for raising seedlings was soaked in these culture media, with the root cut off except for a 2 cm-long part thereof, and was grown in a growth chamber (manufactured by SANYO Electric Co., Ltd.) under the conditions of 25° C. with the lighting period of 16 hours, and the dark period of 8 hours to measure the plant length of rice, the length of the root, and the living masses of the above-ground part and the root after 14 days.
Rice was grown in the same manner as in each of Examples 21 to 25, except for not adding a benzoic acid compound to the culture medium. After 14 days, the plant length of rice, the length of the root, and the living masses of the above-ground part and the root were measured.

[2] = tested on: Rice (Kinmaze); test: Rice seedlings at second leaf stage grown in liquid culture medium with herbicidal compound A1 and benzoic acid compounds; conditions: herbicidal compound A1 0.1 ppm, benzoic acid compound 3 or 1 ppm (Table 2); after 14 days
Method: The test culture media were prepared by adding, in advance, to a 25% aqueous solution of salts for Murashige & Skoog culture medium (a product of Wako Pure Chemical Industries, Ltd.), the herbicidal compound A1 and various benzoic acid compounds indicated in Table 2 to make up a concentration of 0.1 ppm and the concentrations shown in Table 2, respectively. Fifty ml each of the resulting test culture media were dispensed into a 50 ml Erlenmeyer flask to prepare various liquid culture media. Similarly, the same amount of the 25% aqueous solution of salts for Murashige & Skoog culture medium was added to the above-mentioned flask to prepare a liquid culture medium (hereinafter referred to as the untreated culture medium). Rice (Kinmaze) grown to the second leaf stage in culture soil for raising seedlings was soaked in these culture media, with the root cut off except for a 2 cm-long part thereof, and was grown in a growth chamber under the conditions of 25° C. with the lighting period of 16 hours, and the dark period of 8 hours to measure the plant length of rice, the length of the root and the living masses of the above-ground part and the root after 14 days or, namely, after lapse of 14 cycles.
Rice was grown in the same manner as in Example 14, except for not adding a benzoic acid compound. After 14 days, the plant length of rice, the length of the root, and the living masses of the above-ground part and the root were measured.

[3] = tested on: rice seeds (variety of Kinmaze); test: Root length of germinated rice seeds grown on gelled culture medium containing herbicidal compound A1 and a benzoic acid compound; conditions: herbicidal compound A1 0.15 ppm, benzoic acid compound 2 ppm; after 7 days at 25° C.; percentage relative to untreated area
Method: Brine-sorted rice seeds (variety of Kinmaze) were soaked in a 0.5% aqueous solution of sodium hypochlorite for 10 minutes followed by washing in running water for 30 minutes and then kept at 30° C. for 36 hours to cause germination for obtaining germinated seeds. Separately, 0.3 part of gellan gum was dissolved in 100 parts of an aqueous solution of salts for Hoagland's No. 2 culture medium (a product by Sigma Co.). 13 Glass vials of 2 cm internal diameter and 5 cm height were each filled with 15 ml of the solution to which 2-[(4,6-dimethoxypyrimidin-2-yl)hydroxymethyl]-6-methoxymethyl-N-difluoromethane-sulfonylanilide (hereinafter referred to as the herbicidal compound A1) and a variety of the benzoic acid compounds indicated in Table 1 were added to make up concentrations of 0.15 ppm and 2 ppm, respectively, and kept standing to cause gelation of the solutions in the glass vial to prepare a culture medium containing the inventive composition (hereinafter referred to as the inventive culture medium). […]
Germinated seeds were grown in the same manner as in Example 1, except for not adding a benzoic acid compound to the inventive culture medium. After seven days, the lengths of the roots were measured.

CCOC(=O)c1cnn(C)c1S(=O)(=O)NC(=O)Nc1nc(OC)cc(OC)n1 [compound 4, Pyrazosulfuron-ethyl]
Length of root [1]: 2.0 cm | Living mass Above-ground part [1]: 0.07 g | Living mass Root [1]: 0.04 g | Plant length [1]: 11.7 cm

CCN(C(=O)n1nnn(-c2ccccc2Cl)c1=O)C1CCCCC1 [compound 7, Fentrazamide]
Length of root [1]: 2.2 cm | Living mass Above-ground part [1]: 0.08 g | Living mass Root [1]: 0.05 g | Plant length [1]: 11.6 cm

COCc1cccc(C(O)c2nc(OC)cc(OC)n2)c1NS(=O)(=O)C(F)F (stereo not shown) [Comparative Example 2, 2-[(4,6-dimethoxypyrimidin-2-yl)hydroxymethyl]-6-methoxymethyl-N-difluoromethane-sulfonylanilide]
Length of root [2]: 2.1 cm | Living mass Above-ground part [2]: 0.16 g | Living mass Root [2]: 0.07 g | Plant length [2]: 15.6 cm

CCN(CC)C(=O)SCc1ccc(Cl)cc1 [compound 6, Thiobencarb]
Living mass Above-ground part [1]: 0.23 g | Living mass Root [1]: 0.18 g

CCCCOCN(C(=O)CCl)c1c(CC)cccc1CC [compound 5, Butachlor]
Living mass Above-ground part [1]: 0.14 g | Living mass Root [1]: 0.09 g

COCc1cccc(C(O)c2nc(OC)cc(OC)n2)c1NS(=O)(=O)C(F)F (stereo not shown) [Comparative Example 1, 2-[(4,6-dimethoxypyrimidin-2-yl)hydroxymethyl]-6-methoxymethyl-N-difluoromethane-sulfonylanilide]
Length of root (%) [3]: 21%

COC(=O)c1ccccc1CS(=O)(=O)NC(=O)Nc1nc(OC)cc(OC)n1 [compound 3, Bensulfuron-methyl]
Living mass Above-ground part [1]: 0.11 g | Living mass Root [1]: 0.05 g
